Conditions: gamma-ray densimeter

Fc1c(F)c(F)c(F)c(F)c1F [hexafluorobenzene]
mass density [kg/m3]
Conditions	Gas	Liquid
298.79 K	–	1605.4
323.83 K	2.3	1548.5
343.88 K	–	1499.4
363.85 K	–	1450.5
383.91 K	15.5	1397.9
403.92 K	25.8	1342.1
423.93 K	40.6	1281.2
443.9 K	62.7	1213.9
463.89 K	95.3	1135.3
483.9 K	146.7	1037.1
493.93 K	186	974
503.88 K	243.5	892.3
508.9 K	287	835.8
513.91 K	363.5	744.6
513.92 K	363.5	746.3
515.98 K	433.7	670.3
516.28 K	455.8	644.8
516.57 K	491.5	610.1

— the NIST ThermoML archive (doi:10.1007/s10765-006-0092-8)
